{"source": "patent US12655145B2", "about": "“P2X3 modulators” (GlaxoSmithKline Intellectual Property (No. 3) Limited, priority 2020, dated 2026)"}
{"target": "T1, P2X3 (Homo sapiens, UniProt P56373)", "T1 construct": "expressed in transfected cells; host or cells: HEK293", "T1 sequence (P56373 1-397)": "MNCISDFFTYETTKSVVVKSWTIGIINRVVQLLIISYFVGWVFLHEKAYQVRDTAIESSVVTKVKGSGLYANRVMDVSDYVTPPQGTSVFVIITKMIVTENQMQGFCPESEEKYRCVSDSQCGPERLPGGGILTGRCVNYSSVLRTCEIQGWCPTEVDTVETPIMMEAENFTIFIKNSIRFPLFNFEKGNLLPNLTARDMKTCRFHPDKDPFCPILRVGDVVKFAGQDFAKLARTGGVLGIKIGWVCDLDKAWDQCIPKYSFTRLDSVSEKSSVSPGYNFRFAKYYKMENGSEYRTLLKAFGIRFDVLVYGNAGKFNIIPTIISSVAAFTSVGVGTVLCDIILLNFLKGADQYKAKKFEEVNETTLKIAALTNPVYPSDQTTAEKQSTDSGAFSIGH", "experiment": "P2X3 Antagonist Assay (FLIPR calcium, Fluo-8, HEK293 cells transfected with human ion channel cDNAs, αβ-meATP stimulation)", "assay_type": "cell-based", "conditions": "@ 1 μM, antagonist mode, αβ-meATP 3 μM", "experimental": "(§1) Example 59: P2X3 Antagonist Assay\n(§2) HEK293 were transiently or stably transfected with human ion channel cDNAs as indicated in section 1. Stable transfectants were selected by coexpression with the antibiotic-resistance gene(s) incorporated into the expression plasmid(s). Selection pressure was maintained by including selection antibiotics in the culture medium. HEK293 cells were cultured in Dulbecco's Modified Eagle Medium/Nutrient Mixture F-12 (D-MEM/F-12) supplemented with 10% fetal bovine serum, 100 U/mL penicillin G sodium, 100 J·Lg/mL streptomycin sulfate and appropriate selection antibiotics.\n(§3) The effect of each test article to act as an antagonist was evaluated. Each test article was evaluated at eight (8) concentrations (0.001, 0.003, 0.01, 0.03, 0.1, 0.3, 1 and 3 μM, n=3) with 4 replicates for each concentration. Experiments were performed with the FLIPR calcium sensitive dye kit (Fluo-8 dye, AAT, Bioquest) according to the manufacturer's instructions. • Dye-loading: Growth media will be removed and add 20 μL of Mg^++-free HBPS containing Fluo-8 for 30 min at 37° C. • Preincubation (FLIPR step 1): Adding 5× (5 μL) test, vehicle, or control article solutions in Mg^+-free HBPS to each well for 20 minutes at room temperature, protected from light. • Stimulation (FLIPR step 2): After pre-incubation, cells will be stimulated with 6× (5 μL) αβ-meATP at final concentration of 3 μM prepared in Mg^++-free HBPS. • Non-Specific Calcium Influx (FLIPR step 3): 5 minutes after stimulation solution addition, non-specific calcium influx will be activated by adding 7×(5 μL) ionomycin at a final concentration of 5 μM. Fluorescence will be recorded continuously during FLIPR steps 2 and 3. • Positive Control Antagonist: PPADS (1 mM).\n(§4) Data acquisition was performed via the FLIPRControl software that is supplied with the FLIPR System (MDS-AT) and data was analyzed using Microsoft Excel2003 (Microsoft Corp., Redmond, WA).", "units": {"P2X3 IC50 column, given as % @ 1 μM": "% @ 1 μM"}}
{"smiles": "CNC(=O)c1cc(F)c(-c2nc3cc(C)ccn3c2CC2COCCN(C(=O)OC)C2)c(F)c1", "note": "(single isomer, unassigned) [A16 (Peak 2), methyl 6-((2-(2,6-difluoro-4-(methylcarbamoyl)phenyl)-7-meth-ylimidazo[1,2-a]pyridin-3-yl)methyl)-1,4-oxazepane-4-carboxylate]", "P2X3 IC50 column, given as % @ 1 μM": 23}
{"smiles": "CNC(=O)c1cc(F)c(-c2nc3cc(C)ccn3c2CC2CCCCN(C(=O)OC)C2)c(F)c1", "note": "(single isomer, unassigned) [A17 (Peak 2), methyl 3-((2-(2,6-difluoro-4-(methylcarbamoyl)phenyl)-7-methylimidazo[1,2-a]pyridin-3-yl)methyl)azepane-1-carboxylate]", "P2X3 IC50 column, given as % @ 1 μM": 21}
{"smiles": "CNC(=O)c1cc(F)c(-c2nc3cc(C)ccn3c2CC2CCCC(NC(C)=O)C2)c(F)c1", "note": "(single isomer, unassigned) [trans-A22 (Peak 2), 4-(3-((3-acetamidocyclohexyl)methyl)-7-methylimidazo[1,2-a]pyridin-2-yl)-3,5-difluoro-N-methylbenzamide]", "P2X3 IC50 column, given as % @ 1 μM": 17}
{"target": "T1, P2X3", "experiment": "P2X3 Antagonist Assay (FLIPR calcium, Fluo-8, HEK293 cells transfected with human ion channel cDNAs, αβ-meATP stimulation)", "assay_type": "cell-based", "conditions": "@ 1 μM, antagonist mode, αβ-meATP 3 μM, read-out: P2X3 IC50 column, given as % @ 1 μM", "experimental": "as §1, §2, §3, §4", "units": {"inhibition at 1 µM": "%"}}
{"smiles": "CNC(=O)c1ccc(-c2nc3cc([S+](C)[O-])ccn3c2C[C@H]2CN(C(=O)OC)CCO2)c(F)c1", "note": "(single isomer, unassigned) [A47 (Peak 1)]", "inhibition at 1 µM": 5}
{"target": "T1, P2X3", "experiment": "P2X3 Antagonist Assay (FLIPR calcium, Fluo-8, HEK293 cells transfected with human ion channel cDNAs, αβ-meATP stimulation)", "assay_type": "cell-based", "conditions": "HEK293, @ 1 μM, antagonist mode, αβ-meATP 3 μM, read-out: P2X3 IC50 column, given as % @ 1 μM", "experimental": "as §1, §2, §3, §4", "units": {"inhibition at 1 µM": "%"}}
{"smiles": "CNC(=O)c1cc(F)c(-c2nc3cc(C)ccn3c2CC2CN(C(=O)OC)CCCO2)c(F)c1", "note": "(single isomer, unassigned) [A14 (Peak 1), methyl 2-((2-(2,6-difluoro-4-(methylcarbamoyl)phenyl)-7-methylimidazo[1,2-a]pyridin-3-yl)methyl)-1,4-oxazepane-4-carboxylate]", "inhibition at 1 µM": 39}
{"smiles": "CNC(=O)c1cc(F)c(-c2nc3cc(C)ccn3c2CC2COCCN(C(=O)OC)C2)c(F)c1", "note": "(single isomer, unassigned) [A16 (Peak 1), methyl 6-((2-(2,6-difluoro-4-(methylcarbamoyl)phenyl)-7-meth-ylimidazo[1,2-a]pyridin-3-yl)methyl)-1,4-oxazepane-4-carboxylate]", "inhibition at 1 µM": 29}
{"smiles": "CNC(=O)c1cc(F)c(-c2nc3cc(C)ccn3c2CC2CCCCN(C(=O)OC)C2)c(F)c1", "note": "(single isomer, unassigned) [A17 (Peak 1), methyl 3-((2-(2,6-difluoro-4-(methylcarbamoyl)phenyl)-7-methylimidazo[1,2-a]pyridin-3-yl)methyl)azepane-1-carboxylate]", "inhibition at 1 µM": 30}
{"smiles": "CNC(=O)c1cc(F)c(-c2nc3cc(C)ccn3c2CC2CCCC(NC(C)=O)C2)c(F)c1", "note": "(single isomer, unassigned) [trans-A22 (Peak 1), 4-(3-((3-acetamidocyclohexyl)methyl)-7-methylimidazo[1,2-a]pyridin-2-yl)-3,5-difluoro-N-methylbenzamide]", "inhibition at 1 µM": 22}
{"target": "T1, P2X3", "experiment": "P2X3 Antagonist Assay (FLIPR calcium, Fluo-8, HEK293 cells transfected with human ion channel cDNAs, αβ-meATP stimulation)", "assay_type": "cell-based", "conditions": "antagonist mode, αβ-meATP 3 μM", "experimental": "as §1, §2, §3, §4", "units": {"IC50": "nM"}}
{"smiles": "CNC(=O)c1cc(F)c(-c2nc3cc(C)ccn3c2CC2CN(C(=O)OC)CCCO2)c(F)c1", "note": "(single isomer, unassigned) [A14 (Peak 2), methyl 2-((2-(2,6-difluoro-4-(methylcarbamoyl)phenyl)-7-methylimidazo[1,2-a]pyridin-3-yl)methyl)-1,4-oxazepane-4-carboxylate]", "IC50": "< 100"}
{"smiles": "CNC(=O)c1cc(F)c(-c2nc3cc(C)ccn3c2CC2CCCN(C(=O)OC)CC2)c(F)c1", "note": "(single isomer, unassigned) [A18 (Peak 1), methyl 4-((2-(2,6-difluoro-4-(methylcarbamoyl)phenyl)-7-methylimidazo[1,2-a]pyridin-3-yl)methyl)azepane-1-carboxylate]", "IC50": "< 100"}
{"smiles": "CNC(=O)c1cc(F)c(-c2nc3cc(C)ccn3c2CC2CCCN(C(=O)OC)CC2)c(F)c1", "note": "(single isomer, unassigned) [A18 (Peak 2), methyl 4-((2-(2,6-difluoro-4-(methylcarbamoyl)phenyl)-7-methylimidazo[1,2-a]pyridin-3-yl)methyl)azepane-1-carboxylate]", "IC50": "100 to 1000"}
{"smiles": "CNC(=O)c1ccc(-c2nc3cc(C(O)C(F)(F)F)ccn3c2C[C@H]2CN(C(=O)OC)CCO2)c(F)c1", "note": "(single isomer, unassigned) [A46 (Peak 1)]", "IC50": "> 1000"}
{"smiles": "CNC(=O)c1ccc(-c2nc3cc(C(O)C(F)(F)F)ccn3c2C[C@H]2CN(C(=O)OC)CCO2)c(F)c1", "note": "(single isomer, unassigned) [A46 (Peak 2)]", "IC50": "> 1000"}
{"smiles": "CNC(=O)c1ccc(-c2nc3cc([S+](C)[O-])ccn3c2C[C@H]2CN(C(=O)OC)CCO2)c(F)c1", "note": "(single isomer, unassigned) [A47 (Peak 2)]", "IC50": "> 1000"}
{"smiles": "CNC(=O)c1cc(F)c(-c2nc3cc(C)ccn3c2CC2CCCC(NC(C)=O)C2)c(F)c1", "note": "(single isomer, unassigned) [cis-A22 (Peak 1), 4-(3-((3-acetamidocyclohexyl)methyl)-7-methylimidazo[1,2-a]pyridin-2-yl)-3,5-difluoro-N-methylbenzamide]", "IC50": "< 100"}
{"smiles": "CNC(=O)c1cc(F)c(-c2nc3cc(C)ccn3c2CC2CCCC(NC(C)=O)C2)c(F)c1", "note": "(single isomer, unassigned) [cis-A22 (Peak 2), 4-(3-((3-acetamidocyclohexyl)methyl)-7-methylimidazo[1,2-a]pyridin-2-yl)-3,5-difluoro-N-methylbenzamide]", "IC50": "< 100"}
{"smiles": "CNC(=O)c1cc(F)c(-c2nc3cc(C)ccn3c2C[C@H]2CCCN(C(=O)OC)C2)c(F)c1", "note": "[(R)-A19, methyl (R)-3-((2-(2,6-difluoro-4-(methylcarbamoyl)phenyl)-7-methylimidazo[1,2-a]pyridin-3-yl)methyl)piperidine-1-carboxylate]", "IC50": "< 100"}
{"smiles": "CNC(=O)c1cc(F)c(-c2nc3cc(C)ccn3c2C[C@@H]2CCCN(C(=O)OC)C2)c(F)c1", "note": "[(S)-A19, methyl (S)-3-((2-(2,6-difluoro-4-(methylcarbamoyl)phenyl)-7-methylimidazo[1,2-a]pyridin-3-yl)methyl)piperidine-1-carboxylate]", "IC50": "< 100"}
{"smiles": "CNC(=O)c1cc(F)c(-c2nc3cc(F)ccn3c2C[C@H]2CN(C(=O)OC)CCO2)c(F)c1", "note": "[Compound A1, methyl (S)-2-((2-(2,6-difluoro-4-(methylcarbamoyl)phenyl)-7-fluoroimidazo[1,2-a]pyridin-3-yl)methyl)morpholine-4-carboxylate]", "IC50": "100 to 1000"}
{"smiles": "CNC(=O)c1cc(F)c(-c2nc3cc(Cl)ccn3c2C[C@H]2CN(C(=O)OC)CCO2)c(F)c1", "note": "[Compound A2, methyl (S)-2-((7-chloro-2-(2,6-difluoro-4-(methyl-carb-amoyl)-phenyl)-imidazo[1,2-a]pyridin-3-yl)methyl)morpholine-4-carboxylate]", "IC50": "< 100"}
{"smiles": "CNC(=O)c1cc(F)c(-c2nc3cc(OC)ccn3c2C[C@H]2CN(C(=O)OC)CCO2)c(F)c1", "note": "[Compound A3, methyl (S)-2-((2-(2,6-difluoro-4-(methylcarbamoyl)phenyl)-7-methoxyimidazo[1,2-a]pyridin-3-yl)methyl)morpholine-4-carboxylate]", "IC50": "< 100"}
{"smiles": "CNC(=O)c1cc(F)c(-c2nc3cc(C(F)F)ccn3c2C[C@H]2CN(C(=O)OC)CCO2)c(F)c1", "note": "[Compound A4, methyl (S)-2-((2-(2,6-difluoro-4-(methylcarbamoyl)phenyl)-7-(di-fluoromethyl)imidazo[1,2-a]pyridin-3-yl)methyl)morpholine-4-carboxylate]", "IC50": "< 100"}
{"smiles": "CNC(=O)c1cc(F)c(-c2nc3cc(C(F)(F)F)ccn3c2C[C@H]2CN(C(=O)OC)CCO2)c(F)c1", "note": "[Compound A5, methyl (S)-2-((2-(2,6-difluoro-4-(methylcarbamoyl)phenyl)-7-(trifluoromethyl)imidazo[1,2-a]pyridin-3-yl)methyl)morpholine-4-carboxylate]", "IC50": "100 to 1000"}
{"smiles": "CNC(=O)c1cc(F)c(-c2nc3cc(C)ccn3c2C[C@H]2CN(C(=O)OC)CCO2)c(F)c1F", "note": "[Compound A6, methyl (S)-2-((7-methyl-2-(2,3,6-trifluoro-4-(methylcarbamoyl)-phenyl)imidazo[1,2-a]pyridin-3-yl)methyl)morpholine-4-carboxylate]", "IC50": "< 100"}
